Data: patent US20040115331A1, “Ximenynic acid compositions, methods for their production and uses thereof” (priority 2002, published 2004)

Test system: enteroendocrine L-cells
Assay: Secretion of satiety inducing peptides (CCK-8, GLP-1) by enteroendocrine L-cells, radio immuno assay
Format: cell-based
Conditions: L-cells incubated 2 h at 37° C in KRB buffer; compared with equal amounts of palmitic acid
Experimental: To estimate the effects of ximenynic acid on satiety we measure the excretion of satiety inducing peptides (CCK-8 and GLP-1 L) by enteroendocrine L-cells. Two days prior to experiment 1*10^6 are cultured in 12-well culture plates. On the day of the experiment supernatants are replaced by Krebs-Ringer bicarbonate (KRB) buffer containing either control or test substances. Prior to the addition the solutions are adjusted to pH 7.2. Cells are incubated for 2 h at 37° C. Following incubation, supernatants are collected and measured by radio immuno assay for the amount of CCK-8 or GLP-1 which has been secreted.

CCCCCC/C=C/C#CCCCCCCCC(=O)O [ximenynic acid, octadeca-trans-11-en-9-ynoic acid]
release of CCK-8: significantly greater release | release of GLP-1: significantly greater release
